The values below come from ChEMBL document CHEMBL5131376, “Kinase Inhibitors as Underexplored Antiviral Agents” (J Med Chem, 2022).

The target in data set [1] is BMP-2-inducible protein kinase (Homo sapiens, UniProt Q9NSY1). The data set can be described thus: Binding affinity to BIKE (unknown origin) assessed as dissociation constant.
Data set [2] addresses Cyclin-dependent kinase 2 (Homo sapiens, UniProt P24941). The data set can be described thus: Inhibition of CDK2 (unknown origin).
The next data set relates to Zika virus. The data set can be described thus: Antiviral activity against ZIKV infected in human SNB-19 cells. It counts as functional, organism-based.
Data set [3] has as its target AP2-associated protein kinase 1 (Homo sapiens, UniProt Q2M2I8). The data set can be described thus: Binding affinity to AAK1 (unknown origin) assessed as dissociation constant.
In data set [4] the target is Cyclin-G-associated kinase (Homo sapiens, UniProt O14976). The data set can be described thus: Binding affinity to GAK (unknown origin) assessed as dissociation constant.
For the next data set, the system named is Human alphaherpesvirus 1. The data set can be described thus: Antiviral activity against HSV-1 infected in African green monkey Vero cells assessed as inhibition of viral replication. The following applies: Human alphaherpesvirus 1, Vero. It is filed as functional, organism-based.
For another data set, the system named is dengue virus type 4. The data set can be described thus: Antiviral activity against DENV 4 infected in african green monkey Vero cells assessed as focus formation measured after 6 days. It is filed as functional, organism-based. Particulars: 144 h.
Data set [5] addresses Tyrosine-protein kinase ABL1 (Homo sapiens, UniProt P00519).
The next data set concerns dengue virus type 3. The data set can be described thus: Antiviral activity against DENV 3 infected in african green monkey Vero cells assessed as focus formation measured after 6 days. It is filed as functional, organism-based. Particulars: 144 h.
The subject of the next data set is dengue virus type 2. The data set can be described thus: Antiviral activity against DENV 2 infected in african green monkey Vero cells assessed as focus formation measured after 6 days. It counts as functional, organism-based. Particulars: 144 h.
The next data set has as its system dengue virus type 1. The data set can be described thus: Antiviral activity against DENV 1 infected in hamster BHK-21 cells assessed as focus formation measured after 5 days. It is filed as functional, organism-based. Particulars: BHK-21, 120 h.
For data set [6], the target named is 1-phosphatidylinositol 3-phosphate 5-kinase (Homo sapiens, UniProt Q9Y2I7). The data set can be described thus: Inhibition of PIKFYVE (unknown origin).
A short description of data set [7]: Cytotoxicity against human […] cells. It is filed as toxicity, cell-based. Particulars: U2OS cells.
A short description of data set [8]: Cytotoxicity against african green monkey Vero cells. It counts as toxicity, cell-based. Particulars: chlorocebus sabaeus.
For another data set, the system named is SARS-CoV-2. The data set can be described thus: Antiviral activity against SARS-CoV-2 infected in african green monkey Vero cells incubated for 72 hrs by celltitre-glo luminescent assay. The following applies: Severe acute respiratory syndrome coronavirus 2, Vero. It counts as functional, organism-based.
Data set [9] has as its system Human immunodeficiency virus 1. The data set can be described thus: Antiviral activity against HIV-1 in U87/CD4/CCR5 cells expressing HIV-1-envelope-protein assessed as decreased cell-cell fusion at 300 nM. It is filed as functional. Also on record: scale not given: the % may be the effect or the level left.
Data set [10] is described as follows: Binding affinity to AMPK (unknown origin). Also on record: species or system Homo sapiens.
The next data set has as its system SARS-CoV. The data set can be described thus: microbe, parasite or virus in culture. Particulars: Severe acute respiratory syndrome-related coronavirus, Vero C1008, 50 h.
In data set [11] the test system is Influenza A virus. The data set can be described thus: Antiviral activity against Influenza A virus A/Equine/2/MIAMI/1/63 (H3N8)). It is filed as functional, organism-based.
Data set [12] has as its system Influenza A virus. The data set can be described thus: Antiviral activity against Influenza A virus (A/WSN/33 (H1N1)). It counts as functional, organism-based.
Data set [13] has as its system Influenza A virus. The data set can be described thus: Antiviral activity against Influenza A virus (A/Udorn/72 (H3N2)). It counts as functional, organism-based.
The subject of data set [14] is Influenza B virus. The data set can be described thus: Antiviral activity against Influenza B virus B/Lee/40. It counts as functional, organism-based.
Another data set deals with Parainfluenza virus 5. The data set can be described thus: Antiviral activity against PIV5. It is filed as functional, organism-based.
Data set [15] deals with Influenza A virus. The data set can be described thus: Antiviral activity against Influenza A virus (A/PR/8/34 (H1N1)). It is filed as functional, organism-based.
Data set [16] has as its system Influenza B virus. The data set can be described thus: Antiviral activity against Influenza B virus B/MD/59. It counts as functional, organism-based.
In data set [17] the test system is Middle East respiratory syndrome-related coronavirus. The data set can be described thus: microbe, parasite or virus in culture. Particulars: Vero.
The test system is the same in data set [18]. The data set can be described thus: Antiviral activity against MERS-CoV infected in human HUh-7 cells at 0.1 to 10 uM. Particulars: dose 0.1-10 µM. It is filed as functional.
Data set [19] in a line: Inhibition of PDGFR (unknown origin). Set-up: species or system Homo sapiens.
Data set [20] has as its target High affinity nerve growth factor receptor (Homo sapiens, UniProt P04629). The data set can be described thus: Inhibition of TrKA (unknown origin).
Data set [21] has as its target Dual specificity mitogen-activated protein kinase kinase 1 (Homo sapiens, UniProt Q02750).
Data set [22] can be described thus: Inhibition of MEK (unknown origin). Set-up: species or system Homo sapiens.

In general, Kd refers to a measure of binding affinity in units of concentration. A word on the IC50: it is the concentration at which inhibition is half-maximal. As a reminder, the EC50 is the concentration giving half of the maximal effect. Broadly, the CC50 is the concentration giving 50% cytotoxicity.

Chain of AP2-associated protein kinase 1 (Q2M2I8 whole entry): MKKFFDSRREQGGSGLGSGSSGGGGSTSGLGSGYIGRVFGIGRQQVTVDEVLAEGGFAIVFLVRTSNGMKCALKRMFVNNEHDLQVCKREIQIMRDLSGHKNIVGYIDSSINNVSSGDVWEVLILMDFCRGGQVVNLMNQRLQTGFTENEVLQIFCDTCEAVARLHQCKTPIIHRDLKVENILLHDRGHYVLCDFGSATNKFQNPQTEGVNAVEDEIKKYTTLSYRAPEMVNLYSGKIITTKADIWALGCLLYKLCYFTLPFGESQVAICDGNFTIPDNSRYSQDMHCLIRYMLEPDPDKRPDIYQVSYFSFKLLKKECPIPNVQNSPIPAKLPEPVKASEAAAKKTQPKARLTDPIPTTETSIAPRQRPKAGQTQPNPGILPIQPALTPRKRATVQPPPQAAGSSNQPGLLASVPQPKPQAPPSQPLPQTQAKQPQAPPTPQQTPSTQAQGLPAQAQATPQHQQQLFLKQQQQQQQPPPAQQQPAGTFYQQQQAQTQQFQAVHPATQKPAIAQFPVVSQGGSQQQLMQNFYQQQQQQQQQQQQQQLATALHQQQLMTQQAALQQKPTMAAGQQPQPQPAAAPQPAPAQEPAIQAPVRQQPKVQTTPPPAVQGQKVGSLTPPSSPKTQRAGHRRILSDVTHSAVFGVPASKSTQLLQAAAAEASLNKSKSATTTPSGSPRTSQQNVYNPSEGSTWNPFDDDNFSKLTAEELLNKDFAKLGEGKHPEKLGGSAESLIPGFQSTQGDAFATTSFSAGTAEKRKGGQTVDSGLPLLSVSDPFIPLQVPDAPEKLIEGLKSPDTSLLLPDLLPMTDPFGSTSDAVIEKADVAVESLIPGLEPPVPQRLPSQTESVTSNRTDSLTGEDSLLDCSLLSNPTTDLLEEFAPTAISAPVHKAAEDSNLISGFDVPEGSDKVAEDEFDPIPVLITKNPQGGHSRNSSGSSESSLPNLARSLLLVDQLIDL
Chain of Tyrosine-protein kinase ABL1 (P00519 whole entry): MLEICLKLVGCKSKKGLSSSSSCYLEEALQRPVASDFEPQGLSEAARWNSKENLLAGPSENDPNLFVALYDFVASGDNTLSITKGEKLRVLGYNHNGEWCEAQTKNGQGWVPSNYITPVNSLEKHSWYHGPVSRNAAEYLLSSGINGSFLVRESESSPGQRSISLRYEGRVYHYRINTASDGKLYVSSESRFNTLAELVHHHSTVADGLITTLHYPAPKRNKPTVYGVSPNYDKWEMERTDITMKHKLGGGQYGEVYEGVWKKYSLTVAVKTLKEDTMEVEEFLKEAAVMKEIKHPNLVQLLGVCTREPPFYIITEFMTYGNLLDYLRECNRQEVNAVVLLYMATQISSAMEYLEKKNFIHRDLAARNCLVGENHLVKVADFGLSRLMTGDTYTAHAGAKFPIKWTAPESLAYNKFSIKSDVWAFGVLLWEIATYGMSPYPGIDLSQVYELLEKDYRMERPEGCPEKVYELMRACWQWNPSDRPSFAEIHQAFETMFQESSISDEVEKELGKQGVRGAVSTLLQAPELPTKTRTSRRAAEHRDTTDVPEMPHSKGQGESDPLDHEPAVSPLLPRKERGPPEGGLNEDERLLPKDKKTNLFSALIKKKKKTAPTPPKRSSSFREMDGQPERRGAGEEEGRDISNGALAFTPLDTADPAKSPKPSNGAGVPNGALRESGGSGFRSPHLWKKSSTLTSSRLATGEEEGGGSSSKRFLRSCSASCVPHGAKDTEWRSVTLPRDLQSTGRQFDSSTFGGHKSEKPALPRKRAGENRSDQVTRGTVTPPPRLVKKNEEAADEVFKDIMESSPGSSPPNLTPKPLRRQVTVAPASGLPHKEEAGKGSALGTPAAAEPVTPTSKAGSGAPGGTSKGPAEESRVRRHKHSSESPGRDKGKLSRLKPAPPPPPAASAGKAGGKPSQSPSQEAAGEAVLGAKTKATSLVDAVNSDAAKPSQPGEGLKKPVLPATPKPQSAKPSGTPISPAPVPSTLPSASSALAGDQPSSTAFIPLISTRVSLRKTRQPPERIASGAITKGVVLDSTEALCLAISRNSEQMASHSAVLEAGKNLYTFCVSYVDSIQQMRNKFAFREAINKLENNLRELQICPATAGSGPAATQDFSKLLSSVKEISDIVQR
Chain of Dual specificity mitogen-activated protein kinase kinase 1 (Q02750 whole entry): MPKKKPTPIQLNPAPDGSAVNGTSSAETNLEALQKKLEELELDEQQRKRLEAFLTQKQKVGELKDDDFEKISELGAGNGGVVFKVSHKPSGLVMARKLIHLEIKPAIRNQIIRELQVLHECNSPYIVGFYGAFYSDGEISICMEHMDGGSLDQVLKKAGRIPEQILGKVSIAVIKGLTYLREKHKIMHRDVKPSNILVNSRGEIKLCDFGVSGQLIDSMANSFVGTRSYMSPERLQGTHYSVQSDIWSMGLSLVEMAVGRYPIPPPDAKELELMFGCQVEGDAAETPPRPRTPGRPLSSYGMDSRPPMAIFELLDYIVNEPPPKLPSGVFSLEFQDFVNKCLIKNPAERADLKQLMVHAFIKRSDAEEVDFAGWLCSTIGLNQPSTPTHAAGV
Chain of 1-phosphatidylinositol 3-phosphate 5-kinase (Q9Y2I7 whole entry): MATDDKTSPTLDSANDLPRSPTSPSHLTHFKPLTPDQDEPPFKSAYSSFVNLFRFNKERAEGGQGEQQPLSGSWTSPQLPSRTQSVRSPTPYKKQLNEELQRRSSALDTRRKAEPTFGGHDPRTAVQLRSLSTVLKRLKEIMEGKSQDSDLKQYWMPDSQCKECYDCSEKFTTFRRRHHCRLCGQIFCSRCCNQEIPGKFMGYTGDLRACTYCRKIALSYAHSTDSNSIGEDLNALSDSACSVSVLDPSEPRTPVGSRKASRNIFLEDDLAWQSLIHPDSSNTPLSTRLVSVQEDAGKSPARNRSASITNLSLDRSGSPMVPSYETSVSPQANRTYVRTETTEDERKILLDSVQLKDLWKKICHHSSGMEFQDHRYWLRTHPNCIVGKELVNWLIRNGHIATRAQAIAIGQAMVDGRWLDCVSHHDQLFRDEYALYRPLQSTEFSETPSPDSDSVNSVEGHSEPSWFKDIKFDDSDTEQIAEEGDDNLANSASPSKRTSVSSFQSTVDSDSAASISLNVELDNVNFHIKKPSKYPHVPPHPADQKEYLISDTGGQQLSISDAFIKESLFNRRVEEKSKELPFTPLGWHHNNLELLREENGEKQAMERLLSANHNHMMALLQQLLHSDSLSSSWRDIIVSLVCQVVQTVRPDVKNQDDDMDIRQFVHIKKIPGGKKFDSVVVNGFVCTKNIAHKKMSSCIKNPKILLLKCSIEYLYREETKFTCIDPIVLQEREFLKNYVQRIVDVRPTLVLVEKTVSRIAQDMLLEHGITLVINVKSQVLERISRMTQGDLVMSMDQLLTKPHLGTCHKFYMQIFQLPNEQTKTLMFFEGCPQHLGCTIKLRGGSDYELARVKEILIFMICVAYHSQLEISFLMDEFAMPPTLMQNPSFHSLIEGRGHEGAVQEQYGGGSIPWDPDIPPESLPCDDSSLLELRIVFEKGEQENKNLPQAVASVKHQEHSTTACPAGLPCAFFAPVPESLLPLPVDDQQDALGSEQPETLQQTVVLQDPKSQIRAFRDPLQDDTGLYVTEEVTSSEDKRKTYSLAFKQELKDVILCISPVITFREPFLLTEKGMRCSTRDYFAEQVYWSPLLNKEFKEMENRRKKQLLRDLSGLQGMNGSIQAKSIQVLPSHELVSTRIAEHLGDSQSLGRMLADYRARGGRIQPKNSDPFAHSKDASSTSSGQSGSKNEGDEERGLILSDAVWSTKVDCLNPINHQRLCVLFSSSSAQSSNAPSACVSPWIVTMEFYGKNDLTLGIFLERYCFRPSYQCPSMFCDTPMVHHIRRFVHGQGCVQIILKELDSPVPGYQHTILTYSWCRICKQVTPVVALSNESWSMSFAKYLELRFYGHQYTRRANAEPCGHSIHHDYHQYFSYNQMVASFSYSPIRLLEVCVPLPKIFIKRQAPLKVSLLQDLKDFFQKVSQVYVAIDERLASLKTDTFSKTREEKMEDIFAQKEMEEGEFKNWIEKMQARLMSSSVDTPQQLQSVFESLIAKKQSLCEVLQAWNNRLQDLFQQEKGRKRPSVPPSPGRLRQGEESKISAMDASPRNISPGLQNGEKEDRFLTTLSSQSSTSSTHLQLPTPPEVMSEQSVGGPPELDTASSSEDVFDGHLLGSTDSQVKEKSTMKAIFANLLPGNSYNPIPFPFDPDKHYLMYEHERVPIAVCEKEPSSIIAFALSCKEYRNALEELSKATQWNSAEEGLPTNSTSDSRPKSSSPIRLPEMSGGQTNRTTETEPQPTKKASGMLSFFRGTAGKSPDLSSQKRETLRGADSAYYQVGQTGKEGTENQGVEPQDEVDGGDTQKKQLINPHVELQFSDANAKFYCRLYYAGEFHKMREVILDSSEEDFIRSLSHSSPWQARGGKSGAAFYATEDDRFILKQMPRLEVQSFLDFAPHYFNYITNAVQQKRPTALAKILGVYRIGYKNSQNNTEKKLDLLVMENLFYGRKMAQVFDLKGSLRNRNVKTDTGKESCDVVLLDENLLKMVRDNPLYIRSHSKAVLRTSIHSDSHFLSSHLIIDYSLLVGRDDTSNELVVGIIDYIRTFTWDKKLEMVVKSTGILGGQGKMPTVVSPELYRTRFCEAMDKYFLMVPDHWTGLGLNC

Regarding `COc1cc(O)c2c(c1)/C=C/C[C@H](O)[C@H](O)C(=O)/C=C\C[C@H](C)OC2=O`, the Kd in [1] was found to be 0.0038 µM.
As for `CC(=O)Nc1ccc(C(C)C(=O)Nc2ncc(C(C)C)s2)cc1` (configuration not stated), the half-inhibitory concentration (IC50) is 0.031 µM in data set [2] and 1.72 µM in the data set with Zika virus.
`COc1ccc(-c2cnc3[nH]cc(C#Cc4cccnc4)c3c2)cc1OC`: the Kd in data set [3] was 0.004 µM.
`CC(C)C(=O)Nc1n[nH]c2cc(-c3cccc(NS(=O)(=O)C4CC4)c3)ccc12`: the Kd in [3] stood at 18 µM.
Take `COc1cc(N(C)c2ccnc3ccc(C(F)(F)F)cc23)cc(OC)c1OC`: the dissociation constant Kd in [4] was 2.5 µM.
Regarding `Fc1ccc(N2CCCCC2)c(NC(=S)c2ccncc2)c1`, the 50% effective concentration (EC50) in the data set on Human alphaherpesvirus 1 stood at 0.69 µM.
As for `CC(=O)c1cccc(-c2cc(Nc3ccc(OC(F)(F)F)cc3)ncn2)c1`, the half-maximal inhibitory concentration (IC50) in the data set with dengue virus type 4 stood at 5 µM; in data set [5], 0.138 µM; in the data set with dengue virus type 3 it was 5 µM; with dengue virus type 2, 5 µM; in the data set on dengue virus type 1, 5 µM.
Regarding `COc1ccccc1-c1cnc2ccc(N3CC[C@H](N(C)C(=O)C(C)C)C3)nn12`, the Kd in data set [3] is 0.001 µM.
As for `Ic1cccc(/C=N/Nc2nc(N3CCOCC3)nc(N(c3ccccc3)c3ccccc3)n2)c1`, half-maximal inhibition in data set [6] (IC50) required 0.009 µM.
On to `COc1ccccc1-c1cnc2ccc(N3CC[C@H](N(C)C(=O)C(C)(C)C)C3)nn12`, for which the dissociation constant Kd in data set [3] stood at 0.001 µM.
`C1=Nc2ccccc2/C1=C/NNc1nc(Nc2ccccc2)nc(N2CCOCC2)n1` had an IC50 in data set [7] of 0.014 µM.
The compound `CCN1CCN(Cc2ccc(Nc3ncc(F)c(-c4cc(F)c5nc(C)n(C(C)C)c5c4)n3)nc2)CC1` [ABEMACICLIB] displayed a CC50 in [8] above 50 µM. Moreover, the midpoint of inhibition in the data set on SARS-CoV-2, the IC50, lay at 6600 µM.
For the compound `Cc1nc(Nc2ncc(C(=O)Nc3c(C)cccc3Cl)s2)cc(N2CCN(CCO)CC2)n1.O` [DASATINIB], the Activity in [9] amounted to 93%.
On to `c1cc(-c2cnn3cc(-c4ccc(OCCN5CCCCC5)cc4)cnc23)ccn1` [DORSOMORPHIN], for which, in [10], the IC50 is 0.109 µM.
Take `Cc1ccc(NC(=O)c2ccc(CN3CCN(C)CC3)cc2)cc1Nc1nccc(-c2cccnc2)n1` [IMATINIB]: the midpoint of the response with SARS-CoV, the EC50, lay at 2.1 µM.
`Cc1cn(-c2cc(NC(=O)c3ccc(C)c(Nc4nccc(-c5cccnc5)n4)c3)cc(C(F)(F)F)c2)cn1` [NILOTINIB] displayed an EC50 in the data set on SARS-CoV of 2.1 µM.
For the compound `COc1ccc(Cc2nccc3cc(OC)c(OC)cc23)cc1OC` [PAPAVERINE], the IC50 in the data set on Influenza A virus [11], in the data set with Influenza A virus [12], in the data set on Influenza A virus [13], with Influenza B virus [14], with Parainfluenza virus 5 and in the data set with Influenza A virus [15] was 2 µM each time. In the data set with Influenza B virus [16], the concentration for half-maximal inhibition (IC50) was determined as 2 µM.
`CN1CCN(CCOc2cc(OC3CCOCC3)c3c(Nc4c(Cl)ccc5c4OCO5)ncnc3c2)CC1` [SARACATINIB] registered a concentration giving a half-maximal response (EC50) in [17] of 2.9 µM.
Turning to `Cn1cnc2c(F)c(Nc3ccc(Br)cc3Cl)c(C(=O)NOCCO)cc21` [SELUMETINIB], in data set [18], the Activity is on record as above 95%.
`CNC(=O)c1cc(Oc2ccc(NC(=O)Nc3ccc(Cl)c(C(F)(F)F)c3)cc2)ccn1` [SORAFENIB]: 0.02 µM corresponded to half-maximal inhibition in [19] (IC50).
As to `CC(=O)Nc1cccc(-n2c(=O)n(C3CC3)c(=O)c3c(Nc4ccc(I)cc4F)n(C)c(=O)c(C)c32)c1` [TRAMETINIB], the Activity in data set [18] is above 95%.
Consider `CC(C)(C)c1cc(C=C(C#N)C#N)cc(C(C)(C)C)c1O` [TYRPHOSTIN A9], for which the IC50 in [19] came out at 0.5 µM.
On to `CC(C)(C)c1cc(/C=C(\C#N)C(N)=S)cc(C(C)(C)C)c1O` [TYRPHOSTIN AG 879], for which the concentration for half-maximal inhibition (IC50) in data set [20] was determined as 10 µM.
In the case of `O=C(O)c1ccc(F)c(F)c1Nc1ccc(I)cc1Cl` [ZAPNOMETINIB], the IC50 in [21] and in [22] was 0.00573 µM throughout.
